Data reported in ChEMBL document CHEMBL1151233, “Biotransformation of imperatorin by Aspergillus flavus” (J Nat Prod, 2004).

Tests used:
Hepatitis B virus [1] = experiment: Antiviral activity against hepatitis B virus infected in human MS-G2 cells assessed as inhibition of surface antigen production at 10 uM after 48 hrs; assay type: functional; conditions: MS-G2, 48 h
Hepatitis B virus [2] = experiment: Antiviral activity against hepatitis B virus infected in human MS-G2 cells assessed as inhibition of e-antigen production at 100 uM after 48 hrs; assay type: functional; conditions: MS-G2, 48 h
Hepatitis B virus [3] = experiment: Antiviral activity against hepatitis B virus infected in human MS-G2 cells assessed as inhibition of e-antigen production at 50 uM after 48 hrs; assay type: functional; conditions: MS-G2, 48 h
Hepatitis B virus [4] = experiment: Antiviral activity against hepatitis B virus infected in human MS-G2 cells assessed as inhibition of e-antigen production at 10 uM after 48 hrs; assay type: functional; conditions: MS-G2, 48 h
[5] = Cytotoxicity against human MS-G2 cells at 100 uM by MTT assay; assay type: cell-based; conditions: read-out: INH
[6] = Cytotoxicity against human MS-G2 cells at 50 uM by MTT assay; assay type: cell-based; conditions: read-out: INH
[7] = Cytotoxicity against human MS-G2 cells at 10 uM by MTT assay; assay type: cell-based; conditions: read-out: INH
Hepatitis B virus [8] = experiment: Antiviral activity against hepatitis B virus infected in human MS-G2 cells assessed as inhibition of surface antigen production at 100 uM after 48 hrs; assay type: functional; conditions: MS-G2, 48 h
Hepatitis B virus [9] = experiment: Antiviral activity against hepatitis B virus infected in human MS-G2 cells assessed as inhibition of surface antigen production at 50 uM after 48 hrs; assay type: functional; conditions: MS-G2, 48 h

| Structure (SMILES) | inhibition at 10 µM (Hepatitis B virus [1]) [%] | inhibition at 100 µM (Hepatitis B virus [2]) [%] | inhibition at 50 µM (Hepatitis B virus [3]) [%] | inhibition at 10 µM (Hepatitis B virus [4]) [%] | cytotoxicity at 100 µM [5] [%] | cytotoxicity at 50 µM [6] [%] | cytotoxicity at 10 µM [7] [%] | inhibition at 100 µM (Hepatitis B virus [8]) [%] | inhibition at 50 µM (Hepatitis B virus [9]) [%] |
| --- | --- | --- | --- | --- | --- | --- | --- | --- | --- |
| C/C(=C/COc1c2occc2cc2ccc(=O)oc12)C(=O)O | 13.2 | 12.5 | 1.6 | 0.7 | 14.7 | 18.4 | 11.7 | 27 | 12.3 |
| C/C(=C\COc1c2occc2cc2ccc(=O)oc12)CO | 20.9 | 29 | 16.5 | 8 | 10.3 | 3.4 | 13 | 61.3 | 37.4 |
| CC(C)=CCOc1c2occc2cc2ccc(=O)oc12 [PENTOSALEN] | 14.9 | 34.3 | 22.5 | 3.8 | -8.7 | 8.9 | 11 | 68.4 | 55.3 |
| O=c1ccc2cc3ccoc3c(O)c2o1 [XANTHOTOXOL] | 5.2 | 0.7 | 2.7 | -5 | 17 | 12.2 | 7.8 | 19.8 | 10.5 |
| C/C(=C/COc1c2occc2cc2ccc(=O)oc12)CO [Z-trichoclin] | 13.6 | 12.4 | 11.9 | 8.2 | 12.6 | 15 | 18 | 45.2 | 34.6 |
